Measurements reported in patent publication US20190284168A1, “PYRAZOLE DERIVATIES AS SGC STIMULATORS” (IRONWOOD PHARMACEUTICALS, INC., priority 2014, published 2019).

What follows are compounds tested against T1, soluble guanylate cyclase (sGC) (Homo sapiens, UniProt Q02108+Q02153) (assay: sGC-HEK-cGMP assay with LC/MS detection). Settings: HEK293 whole cells, LC/MS detection of cGMP, 10 μM DETA-NONOate; 50% of high control response (30 μM Compound Y); read-out: Absolute EC50 (nM)- binned (~).
T1 construct: endogenously expressing soluble guanylate cyclase (sGC); endogenous in cells; host or cells: HEK293
T1 sequence (Q02153 1-619): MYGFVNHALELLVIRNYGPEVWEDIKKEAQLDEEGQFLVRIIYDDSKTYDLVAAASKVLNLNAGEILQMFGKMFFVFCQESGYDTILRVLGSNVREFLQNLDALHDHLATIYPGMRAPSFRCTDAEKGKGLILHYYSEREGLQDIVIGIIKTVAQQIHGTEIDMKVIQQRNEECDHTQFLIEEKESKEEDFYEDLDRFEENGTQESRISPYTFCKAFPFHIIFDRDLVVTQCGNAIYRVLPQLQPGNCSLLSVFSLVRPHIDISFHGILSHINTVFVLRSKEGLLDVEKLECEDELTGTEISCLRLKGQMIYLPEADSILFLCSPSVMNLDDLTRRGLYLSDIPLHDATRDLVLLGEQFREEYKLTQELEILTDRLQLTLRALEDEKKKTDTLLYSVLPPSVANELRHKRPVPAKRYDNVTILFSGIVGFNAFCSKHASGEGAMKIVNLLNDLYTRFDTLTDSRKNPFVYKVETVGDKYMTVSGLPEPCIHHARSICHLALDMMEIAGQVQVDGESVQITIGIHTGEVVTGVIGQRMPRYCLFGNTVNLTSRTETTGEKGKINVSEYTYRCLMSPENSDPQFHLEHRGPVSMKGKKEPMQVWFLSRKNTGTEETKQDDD
T1 sequence (Q02108 1-690): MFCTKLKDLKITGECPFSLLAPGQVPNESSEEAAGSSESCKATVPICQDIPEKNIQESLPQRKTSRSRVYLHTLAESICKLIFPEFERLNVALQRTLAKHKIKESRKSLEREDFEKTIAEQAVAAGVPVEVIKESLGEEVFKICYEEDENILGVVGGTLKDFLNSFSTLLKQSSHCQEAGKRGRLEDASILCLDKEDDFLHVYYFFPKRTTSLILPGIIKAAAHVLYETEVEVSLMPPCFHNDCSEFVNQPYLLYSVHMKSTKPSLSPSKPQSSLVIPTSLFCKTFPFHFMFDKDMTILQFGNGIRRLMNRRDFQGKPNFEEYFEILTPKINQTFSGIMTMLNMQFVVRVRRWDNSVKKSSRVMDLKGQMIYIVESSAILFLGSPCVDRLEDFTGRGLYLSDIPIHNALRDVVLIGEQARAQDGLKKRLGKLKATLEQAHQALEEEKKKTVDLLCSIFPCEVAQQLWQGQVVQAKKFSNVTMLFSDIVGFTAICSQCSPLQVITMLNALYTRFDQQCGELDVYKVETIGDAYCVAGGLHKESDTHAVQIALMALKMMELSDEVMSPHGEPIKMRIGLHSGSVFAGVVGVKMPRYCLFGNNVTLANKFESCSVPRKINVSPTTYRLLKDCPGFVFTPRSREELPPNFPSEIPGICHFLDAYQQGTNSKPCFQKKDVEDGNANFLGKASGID
Assay type: cell-based
Description: Human embryonic kidney cells (HEK293), endogenously expressing soluble guanylate cyclase (sGC), were used to evaluate the activity of test compounds. Compounds stimulating the sGC enzyme should cause an increase in the intracellular concentration of cGMP. HEK 293 cells were seeded in Dulbecco's Modification of Eagle's Medium supplemented with fetal bovine serum (10% final) and penicillin (100 U/mL)/streptomycin (100 μg/mL) in a 50 μL volume at a density of 1.5×10^4 cells/well in a poly-D-lysine coated 384 well flat bottom plate. Cells were incubated overnight at 37° C. in a humidified chamber with 5% CO2. Medium was aspirated and cells were washed with 1× Hank's Buffered Saline Salt Solution (50 μL). Cells were then incubated for 15 minutes at 37° C. with 50 μL of a 0.5 mM 3-isobutyl-1-methylxanthine (IBMX) solution.
were then added to the assay mixture and the resulting mixture incubated at 37° C. for 20 minutes. After the 20 minute incubation, the assay mixture was aspirated and 10% acetic acid containing 150 ng/mL+3-cGMP (internal standard for LCMS) (50 μL) was added to the cells. The plate was incubated at 4° C. for 30 minutes in the acetic acid solution to stop the reaction and lyse the cells. The plates were then centrifuged at 1,000 g for 3 minutes at 4° C. and the supernatant transferred to a clean reaction plate for LCMS analysis.
cGMP concentrations were determined from each sample using the LCMS conditions below (Table 2) and calculated standard curve.
Data were fit using a 4-parameter fit (log(agonist) vs. response—variable slope) using GraphPad Prism Software v.5. n=2 for all compounds. […] Compounds failing to elicit a minimum response of 50% are reported as >30 μM.

First: CC(=O)c1cc(-c2ncc(F)c(NCCCCC(=O)O)n2)nn1Cc1ccccc1F [Compound 87]
Second: CC(=O)c1cc(-c2ncc(F)c(NCCO)n2)nn1Cc1ccccc1F [Compound 125]
The EC50 of the first is lower: 100 to 1000 nM for the first, > 1000 nM for the second.

Compared with `C[C@@](N)(CNc1nc(-c2cc(-c3ccon3)n(Cc3ccccc3F)n2)ncc1F)C(F)(F)F` [Compound 106], `Cn1ccnc1C(O)(CNc1nc(-c2cc(-c3ccon3)n(Cc3ccccc3F)n2)ncc1F)C(F)(F)F` (stereo not shown) [Compound 64] is higher in EC50: < 100 nM for the first, 100 to 1000 nM for the second. The first is the more potent here.

First: CC(=O)c1cc(-c2ncc(F)c(NS(=O)(=O)c3ccccc3)n2)nn1Cc1ccccc1F [Compound 98]
Second: CC(=O)c1cc(-c2ncc(F)c(NS(=O)(=O)CCC(F)(F)F)n2)nn1Cc1ccccc1F [Compound 96]
The EC50 of the first is higher: > 1000 nM for the first, 100 to 1000 nM for the second. The second is the more potent here.

`CNc1cc(-c2ncc(F)c(O)n2)nn1Cc1ccccc1F` [Compound 1] and `COCc1cc(-c2ncc(F)c(O)n2)nn1Cc1ccccc1F` [Compound 105] cannot be ordered by EC50: > 1000 nM for the first, > 30000 nM for the second.

First: CC(C)(N)C(=O)Nc1ccnc(-c2cc(-c3ccon3)n(Cc3ccccc3F)n2)n1 [Compound 33]
Second: CCC(C)(N)C(=O)Nc1ccnc(-c2cc(-c3ccon3)n(Cc3ccccc3F)n2)n1 (stereo not shown) [Compound 47]
The EC50 of the first is higher: > 1000 nM for the first, 100 to 1000 nM for the second. The second is the more potent here.

Going from `CC(=O)c1cc(-c2ncc(F)c(N(C)CC3(C(=O)O)CCCC3)n2)nn1Cc1ccccc1F` [Compound 90] to `CC(=O)c1cc(-c2ncc(F)c(N(C)C[C@@H](C(=O)O)C(C)C)n2)nn1Cc1ccccc1F` [Compound 73], the EC50 rises from < 100 nM to > 1000 nM. The first is the more potent here.

`CC(=O)c1cc(-c2ncc(F)c(N3CCCC3)n2)nn1Cc1ccccc1F` [Compound 92] and `CC(=O)c1cc(-c2ncc(F)c(N3CCCS3(=O)=O)n2)nn1Cc1ccccc1F` [Compound 119] cannot be ordered by EC50: > 1000 nM for the first, > 1000 nM for the second.

`OC(CNc1nc(-n2cc(-c3ccon3)c(Cc3ccccc3F)n2)ncc1F)(C(F)(F)F)C(F)(F)F` [Compound 26] and `OC(CNc1nc(-c2cc(-c3ncco3)n(Cc3ccccc3F)n2)ncc1F)(C(F)(F)F)C(F)(F)F` [Compound 103] fall in the same range of EC50: 100 to 1000 nM for the first, 100 to 1000 nM for the second.

First: NC(=O)C1CCN(c2nc(-c3cc(-c4ccon4)n(Cc4ccccc4F)n3)ncc2F)CC1 [Compound 60]
Second: Fc1ccccc1Cn1nc(-c2ncc(F)c(N3CCCO3)n2)cc1-c1ccon1 [Compound 16]
The EC50 of the first is lower: < 100 nM for the first, 100 to 1000 nM for the second. The first is the more potent here.

`Oc1cccc(F)c1Cn1nc(-c2ncc(F)c(NCC(O)(C(F)(F)F)C(F)(F)F)n2)cc1-c1ccon1` [Compound 183] and `Oc1cccc(F)c1Cn1nc(-c2ncc(F)c(O)n2)cc1-c1ccon1` [Compound 182] cannot be ordered by EC50: > 1000 nM for the first, > 1000 nM for the second.

`C[C@](CNc1nc(-c2cc(-c3ccon3)n(Cc3ccccc3F)n2)ncc1F)(NC(CO)c1ccccc1)C(F)(F)F` (stereo partly drawn) [Compound 131, 2-phenyl-2-(((R)-1,1,1-trifluoro-3-((5-fluoro-2-(1-(2-fluorobenzyl)-5-(isoxazol-3-yl)-1H-pyrazol-3-yl)pyrimidin-4-yl)amino)-2-methylpropan-2-yl)amino)ethanol] and `C[C@@](CNc1nc(-c2cc(-c3ccon3)n(Cc3ccccc3F)n2)ncc1F)(NC(CO)c1ccccc1)C(F)(F)F` (stereo partly drawn) [Compound 130, 2-phenyl-2-(((S)-1,1,1-trifluoro-3-((5-fluoro-2-(1-(2-fluorobenzyl)-5-(isoxazol-3-yl)-1H-pyrazol-3-yl)pyrimidin-4-yl)amino)-2-methylpropan-2-yl)amino)ethanol] fall in the same range of EC50: 100 to 1000 nM for the first, 100 to 1000 nM for the second.

Compared with `CCOC(=O)C(C)(C)C(=O)Nc1ccnc(-c2cc(-c3ccon3)n(Cc3ccccc3F)n2)n1` [Compound 66], `CC(O)(C(N)=O)C(=O)Nc1ccnc(-c2cc(-c3ccon3)n(Cc3ccccc3F)n2)n1` (stereo not shown) [Compound 36] is lower in EC50: > 1000 nM for the first, 100 to 1000 nM for the second.

First: CC(=O)c1cc(-c2ncc(F)c(NCC(C)(O)C(N)=O)n2)nn1Cc1ccccc1F (stereo not shown) [Compound 193]
Second: CC(=O)c1cc(-c2ncc(F)c(NCC(O)(C(N)=O)C(F)(F)F)n2)nn1Cc1ccccc1F (stereo not shown) [Compound 85]
The EC50 of the first is higher: > 1000 nM for the first, 100 to 1000 nM for the second.

`CC(=O)c1cc(-c2ncc(F)c(N3CC(NC(=O)C4(O)CC4)C3)n2)nn1Cc1ccccc1F` [Compound 122] and `CC(=O)c1cc(-c2ncc(F)c(N3CC(NC(=O)C(F)(F)F)C3)n2)nn1Cc1ccccc1F` [Compound 121] cannot be ordered by EC50: > 1000 nM for the first, > 1000 nM for the second.

First: NCC(=O)OCCNc1nc(-c2cc(-c3ccon3)n(Cc3ccccc3F)n2)ncc1F [Compound 199]
Second: COC(=O)CCNc1nc(-c2cc(-c3ccon3)n(Cc3ccccc3F)n2)ncc1F [Compound 163, methyl 3-((5-fluoro-2-(1-(2-fluorobenzyl)-5-(isoxazol-3-yl)-1H-pyrazol-3-yl)pyrimidin-4-yl)amino)propanoate]
The EC50 of the first is higher: 100 to 1000 nM for the first, < 100 nM for the second. The second is the more potent here.

`CC(=O)c1cc(-c2ncc(F)c(N(C)C)n2)nn1Cc1ccccc1F` [Compound 91] and `CC(=O)c1cc(-c2ncc(F)c(N[C@@H](CC(=O)O)C(C)C)n2)nn1Cc1ccccc1F` [Compound 138, (S)-3-((2-(5-acetyl-1-(2-fluorobenzyl)-1H-pyrazol-3-yl)-5-fluoropyrimidin-4-yl)amino)-4-methylpentanoic acid] fall in the same range of EC50: 100 to 1000 nM for the first, 100 to 1000 nM for the second.

`CC(=O)c1cc(-c2ncc(F)c(N[C@@H]3CCCC[C@H]3C(=O)O)n2)nn1Cc1ccccc1F` [Compound 137, (1R,2R)-2-((2-(5-acetyl-1-(2-fluorobenzyl)-1H-pyrazol-3-yl)-5-fluoropyrimidin-4-yl)amino)cyclohex anecarboxylic acid] and `CC(=O)c1cc(-c2ncc(F)c(N3CC(C(=O)O)C(C)(C)C3)n2)nn1Cc1ccccc1F` (stereo not shown) [Compound 136, 1-(2-(5-acetyl-1-(2-fluorobenzyl)-1H-pyrazol-3-yl)-5-fluoropyrimidin-4-yl)-4,4-dimethylpyrrolidine-3-carboxylic acid] fall in the same range of EC50: 100 to 1000 nM for the first, 100 to 1000 nM for the second.

First: CS(=O)(=O)NCCNc1cnc(-c2cc(-c3ccon3)n(Cc3ccccc3F)n2)nc1 [Compound 24]
Second: CSCC[C@H](CO)Nc1nc(-c2cc(-c3ccon3)n(Cc3ccccc3F)n2)ncc1F [Compound 150, (R)-2-((5-fluoro-2-(1-(2-fluorobenzyl)-5-(isoxazol-3-yl)-1H-pyrazol-3-yl)pyrimidin-4-yl)amino)-4-(methylthio)butan-1-ol]
The EC50 of the first is higher: 100 to 1000 nM for the first, < 100 nM for the second.

Going from `Nc1nc(-c2cc(-c3ccon3)n(Cc3ccccc3F)n2)nc(N)c1NS(=O)(=O)CCC(F)(F)F` [Compound 19] to `CCCC[C@H](CO)Nc1nc(-c2cc(-c3ccon3)n(Cc3ccccc3F)n2)ncc1F` [Compound 151, (R)-2-((5-fluoro-2-(1-(2-fluorobenzyl)-5-(isoxazol-3-yl)-1H-pyrazol-3-yl)pyrimidin-4-yl)amino)hexan-1-ol], the EC50 falls from > 1000 nM to < 100 nM. The second is the more potent here.

First: O=C(OCCNc1nc(-c2cc(-c3ccon3)n(Cc3ccccc3F)n2)ncc1F)C1CCCCN1 (stereo not shown) [Compound 202]
Second: O=C(CN1CCCCC1)OCCNc1nc(-c2cc(-c3ccon3)n(Cc3ccccc3F)n2)ncc1F [Compound 200]
The EC50 of the first is lower: 100 to 1000 nM for the first, > 1000 nM for the second.

Compared with `CCN(CC)c1nc(-c2cc(-c3ncco3)n(Cc3ccccc3F)n2)ncc1F` [Compound 140], `O=C(OCCNc1nc(-c2cc(-c3ccon3)n(Cc3ccccc3F)n2)ncc1F)c1ccccn1` [Compound 206] is lower in EC50: > 1000 nM for the first, < 100 nM for the second. The second is the more potent here.

For `CC(=O)c1cc(-c2ncc(F)c(N3CCC4(CCOCC4)C3)n2)nn1Cc1ccccc1F` [Compound 112], the EC50 was 100 to 1000 nM.
